In patent publication US12448382B2, “Heterocyclic compounds for mediating tyrosine kinase 2 activity” (GUANGZHOU INNOCARE PHARMA TECH CO., LTD., priority 2019, dated 2025) one finds IC50 data, which are given here for ten compounds.

Experiment [1] relates to IL-12-induced IFN-γ secretion in NK92 cells. As to the kind of experiment: Inhibition of IL-12-induced IFN-γ Secretion in NK92 Cells (ELISA). It counts as cell-based, human. The settings on record: 24 hours incubation, 8 concentration points, read-out: IC50 (NK92_IL12/IFNγ). How it is done:
Inhibition of IL-12-induced IFN-γ Secretion in NK92 Cells
The effect of the compounds of the present invention on IFN-γ secretion induced by IL-12 in NK92 cells was evaluated by an enzyme-linked immunosorbent assay (ELISA).
IL-12 receptor is mainly expressed in activated T-cells, NK cells (NK92 is a NK cell line), DC cells, and B-cells. When binding to IL-12, it activates JAK2/TYK2 signal transduction pathway within NK cells and T lymphocytes, thereby inducing secretion of IFN-γ.
(§1) The experimental method is generally described below:
The test compound was dissolved in DMSO to 2.5 mM, followed by a serial 4-fold dilution with DMSO to a minimum concentration of […]. Each concentration was further diluted 50-fold with an FBS-free MEMα medium (Gibco, 12561-056).
NK92 cells (Nanjing Cobioer, CBP60980) were cultured in a complete MEMα medium containing 12.5% FBS (Ausbian, VS500T), 12.5% horse serum (Gibco, 16050-122), 0.02 mM folic acid (Sigma, F8758), 0.2 mM inositol (Sigma, 17850), 0.55 mM β-mercaptoethanol (Gibco, 21985-023), 200 U/mL IL-2 (R&D Systems, 202-1L), and 100 U/mL penicillin (Thermofisher, 15140122). When covering 80-90% of the culture container surface, the cells were dispersed and plated on a 96-well plate (Thermofisher, 167425) with 100,000 cells per well (80 μL of the complete MEMα medium without IL-2). The 96-well plate was then incubated overnight in a 37° C./5% CO2 incubator.
After overnight incubation, 10 μL of the test compound and 10 μL of 50 ng/mL IL-12 (R & D Systems, 219-1L) were added to each well and mix gently, and the 96-well plate was incubated in the 37° C./5% CO2 incubator for additional 24 hours. The plate as centrifuged at 800 rpm for 10 minutes at room temperature and 50 μL of the supernatant from each well was transferred to another 96-well plate (Sigma, CLS3695) coated with anti-IFN-γ antibody. The amount of IFN-γ secretion was detected following the instruction from the Human IFN-γ DuoSet ELISA kit (R & D Systems, DY285B). In the experiment, the group with IL-12 and the test compound being replaced with the MEMα medium was the non-stimulated control group (100% inhibition), and the group with IL-12 and 0.2% DMSO was the stimulated group (0% inhibition). The percentage of inhibition on IL-12 induced IFN-γ secretion in NK-92 cells by the test compound was calculated using the following formula: Percentage of inhibition=100−100*(signalcompound−signalnon-stimulated control)/(signalstimulated control−signalnon-stimulated control)
The IC50 value of the test compound was calculated front 8 concentration points using the XLfit software (ID Business Solutions Ltd., UK) by the following formula: Y=Bottom+(Top−Bottom)/(1+10^((log IC50−X)×slope factor))
(§2) Where Y was the percentage of inhibition, X was the logarithm of the concentration of the test compound, Bottom was the bottom plateau value of the S-shaped curve, Top was the top plateau value of the S-shaped curve, and slope factor was the slope coefficient of the curve.
(In general: In an ELISA, binding on a coated surface is turned into a signal by an enzyme label.)

In experiment [2] the target is T1, human recombinant JAK2 protein (Homo sapiens, UniProt O60674).
T1 construct: purchased Carna Biosciences 08-045
As to the kind of experiment: JAK2 Inhibition Assay (HTRF kinase assay). It counts as biochemical. Conditions: human recombinant JAK2, 2.5 μM ATP substrate solution. How it is done: The effect of the compounds of the present invention on the enzymatic activity of JAK2 was assessed by detecting the substrate phosphorylation level in a kinase reaction using the HTRF kinase assay detection kit (Cisbio, Cat. No. 62TK0PEC).
as §1
A reaction buffer contained the following components: an enzyme reaction buffer (1×), 5 mM MgCl2, 1 mM DTT and 0.01% Brij35 from the kit. A JAK2 kinase solution contained a human recombinant JAK2 protein (Carna Biosciences, 08-045) diluted in the reaction buffer to 0.15 ng/μL. A substrate reaction solution contained 2.5 μM ATP and 0.25 μM of a biotinylated tyrosine kinase substrate from the kit in the reaction buffer. A detection solution contained 0.1 ng/μL Eu^3+-labeled cage antibody (Cisbio, 61T66KLB) and 12.5 nM streptavidin-labeled XL665 (Cisbio, 610SAXLB) in the reaction buffer.
(§3) The test compound was dissolved in DMSO to 10 μM, followed by a serial 4-fold dilution with DMSO to a minimum concentration of 0.061 nM. Each concentration was further diluted 40-fold with the reaction buffer.
To a 384-well assay plate (Corning, 3674) were added 4 μL of compound solution and 2 μL of JAK2 kinase solution. The mixture was mixed and incubated at room temperature for 15 minutes, and then added with 4 μL of the substrate reaction solution. After further incubation at room temperature for 30 minutes, the reaction mixture was added with an equal volume of 10 μL detection solution and allowed to stand at room temperature for 30 minutes. An Envision plate reader (Perkin Elmer) was then used to measure the progress of the reaction at 620 nm and 665 nm. The ratio of absorbances at 665 nm and 620 nm was positively correlated with the degree of substrate phosphorylation, therefore the activity of JAK2 kinase was detected. In the experiment, the group without JAK2 kinase protein was treated as the 100% inhibition group, and the group with JAK2 kinase protein but not the test compound was treated as the 0% inhibition group. The percentage of inhibition on JAK2 kinase activity by the test compound was calculated using the following formula: Percentage of inhibition=100−100*(ratiocompound−ratio100% inhibition)/(ratio0% inhibition−ratio100% inhibition)
The IC50 value of the test compound was calculated from 8 concentration points using the XLfit softwere (ID Business Solutions Ltd., UK) by the following formula: Y=Bottom+(Top−Bottom)/(1+10^((log IC50−X)×slope factor))
Where Y was the percentage of inhibition, X was the logarithm of the concentration of the test compound. Bottom was the bottom plateau value of the S-shaped curve, Top was the top plateau value of the S-shaped curve, and slope factor was the slope coefficient of the curve.

Experiment [3] concerns the target T2, human recombinant TYK2 protein (Homo sapiens, UniProt P29597).
T2 construct: purchased Carna Biosciences 08-147
T2 sequence (P29597 871-1187 limits assumed): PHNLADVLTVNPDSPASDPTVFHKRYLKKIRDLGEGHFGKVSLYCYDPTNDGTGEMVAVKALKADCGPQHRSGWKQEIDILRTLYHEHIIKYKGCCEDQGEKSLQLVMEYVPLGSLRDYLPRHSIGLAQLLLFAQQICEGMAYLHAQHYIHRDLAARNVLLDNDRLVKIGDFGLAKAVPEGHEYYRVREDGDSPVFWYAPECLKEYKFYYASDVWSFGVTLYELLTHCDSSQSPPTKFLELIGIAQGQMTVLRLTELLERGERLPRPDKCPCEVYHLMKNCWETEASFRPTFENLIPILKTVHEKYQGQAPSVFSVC
As to the kind of experiment: TYK2 Inhibition Assay (HTRF kinase assay). It counts as biochemical. The settings on record: human recombinant TYK2, 11.25 μM ATP substrate solution. As for the experimental part: The effect of the compounds of the present invention on the enzymatic activity of TYK2 was assessed by detecting the substrate phosphorylation level in a kinase reaction using the HTRF kinase assay detection kit (Cisbio, Cat. No. 62TK0PEC).
as §1
A reaction buffer contained the following components: an enzyme reaction buffer (1×), 5 mM MgCl2 mM DTT and 0.01% Brij35 from the kit. A TYK2 kinase solution contained human recombinant TYK2 protein (Carna Biosciences, 08-147) diluted in the reaction buffer to 0.25 ng/μL. A substrate reaction solution contained 11.25 μM ATP and 0.5 μM of a biotinylated tyrosine kinase substrate from the kit in the reaction buffer. A detection solution contained 0.1 ng/μL Eu^3+-labeled cage antibody (Cisbio, 61T66KLB) and 25 nM streptavidin-1 added XL665 (Cisbio, 610SAXLB) in the reaction buffer.
as §3
To a 384-well assay plate (Corning, 3674) were added 4 μL of compound solution and 2 μL of TYK2 kinase solution. The mixture was mixed and incubated at room temperature for 15 minutes, and then added with 4 μL of the substrate reaction solution. After further incubation at room temperature for 40 minutes, the reaction mixture was added with an equal volume of 10 μL detection solution and allowed to stand at room temperature for 30 minutes. An Envision plate reader (Perkin Elmer) was then used to measure the progress of the reaction at 620 nm and 665 nm. The ratio of absorbances at 665 nm and 620 nm was positively correlated with the degree of substrate phosphorylation, therefore the activity of TYK2 kinase was detected. In the experiment, the group without TYK2 kinase protein was treated as the 100% inhibition group, and the group with TYK2 kinase protein but not the test compound was treated as the 0% inhibition group. The percentage of inhibition on TYK2 kinase activity by the test, compound was calculated using the following formula: Percentage of inhibition=100−100*(ratiocompound−ratio100% inhibition)/(ratio0% inhibition−ratio100% inhibition)
The IC50 value of the test compound was calculated from 8 concentration points using the XLfit software (ID Business Solutions Ltd., UK) by the following formula: Y=Bottom+(Top−Bottom)/(1+10^((log IC50−X)slope factor))
as §2
On the technique in general: TR-FRET usually uses a lanthanide donor and a delayed reading to cut background.

Read-outs that look alike come from different tables or passages of the source.

T1 sequence (O60674 826-1132 limits assumed): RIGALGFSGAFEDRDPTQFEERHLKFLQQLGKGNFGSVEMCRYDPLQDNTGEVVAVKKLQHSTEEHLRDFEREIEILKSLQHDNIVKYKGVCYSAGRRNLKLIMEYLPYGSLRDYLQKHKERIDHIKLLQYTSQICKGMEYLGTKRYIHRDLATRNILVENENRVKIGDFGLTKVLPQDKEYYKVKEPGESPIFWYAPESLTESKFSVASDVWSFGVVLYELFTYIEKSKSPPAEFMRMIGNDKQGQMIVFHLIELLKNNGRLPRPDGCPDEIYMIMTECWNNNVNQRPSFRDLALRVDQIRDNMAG

For the compound `Cn1cc(Nc2ncc(Cl)c(N3C[C@]4(C)CN(C(=O)CC(F)F)C[C@]4(C)C3)n2)cn1` [Compound 52], the IC50 in experiment [1] (Homo sapiens) is 289 nM; in experiment [2], 1.8 nM; in experiment [3], 0.9 nM.

As to `CNC(=O)c1ccc(Nc2ncc(Cl)c(N3C[C@]4(C)CN(C(=O)C5CC5)C[C@]4(C)C3)n2)cn1` [Compound 51, 5-((5-chloro-4-((3aR,6aS)-5-(cyclopropanecarbonyl)-3a,6a-dimethylhexahydropyrrolo[3,4-c]pyrrol-2(1H)-yl)pyrimidin-2-yl)amino)-N-methylpicolinamide], the IC50 in experiment [1] (Homo sapiens) amounted to 597 nM; in experiment [2], 7.3 nM; in experiment [3], 2.7 nM.

For the compound `Cn1cc(Nc2ncc(Cl)c(N3C[C@]4(C)CN(C(=O)C5COC5)C[C@]4(C)C3)n2)cn1` [Compound 39, ((3aR,6aS)-5-(5-chloro-2-((1-methyl-1H-pyrazol-4-yl)amino)pyrimidin-4-yl)-3a,6a-dimethylhexahydropyrrolo[3,4-c]pyrrol-2(1H)-yl)(oxetan-3-yl)methanone], the IC50 in experiment [1] (Homo sapiens) worked out at 919 nM; in experiment [2] it was 11 nM; in experiment [3] it was 4.4 nM.

Regarding “3-((3aR,6aS)-3a,6a-dimethyl-5-5-methyl-2-((1-methyl-1H-pyrazol-4-yl)amino)pyrimidin-4-yl)hexahydropyrrolo[3,4-c]pyrrol-2(1H)-yl)-3-oxopropanenitrile [Compound 57]”, the IC50 was 5240 nM in experiment [1], 3.2 nM in experiment [2] and 2.3 nM in experiment [3].

As for `CN1CCN(C(=O)c2ccc(Nc3ncc(Cl)c(N4C[C@]5(C)CN(C(=O)C6CC6)C[C@]5(C)C4)n3)cn2)CC1` [Compound 59, ((3aR,6aS)-5-(5-chloro-2-((6-(4-rnethylpiperazine-1-carbonyl)pyridin-3-yl)amino)pyrimidin-4-yl)-3a,6a-dimethylhexahydropyrrolo[3,4-c]pyrrol-2(1H)-yl)(cyclopropyl)methanone], the IC50 in experiment [1] (Homo sapiens) came to 2390 nM; in experiment [2] it was 5.1 nM; in experiment [3], 5 nM.

Consider `CN1CCC(n2cc(Nc3ncc(Cl)c(N4C[C@]5(C)CN(C(=O)C6CC6)C[C@]5(C)C4)n3)cn2)CC1` [Compound 16, ((3aR,6aS)-5-(5-chloro-2-((1-(1-methylpiperidin-4-yl)-1H-pyrazol-4-yl)amino)pyrimidin-4-yl)-3a,6a-dimethylhexahydropyrrolo[3,4-c]pyrrol-2(1H)-yl)(cyclopropyl)methanone], for which the IC50 is 1010 nM in experiment [1] (Homo sapiens), 0.9 nM in experiment [2] and 1.2 nM in experiment [3].

For the compound `C[C@@]12CN(C(=O)C3CC3)C[C@]1(C)CN(c1nc(Nc3cnn(CCO)c3)ncc1Cl)C2` [Compound 32], the IC50 in experiment [1] (Homo sapiens) was 668 nM; in experiment [2], 1 nM; in experiment [3], 0.5 nM.

On to `Cc1cc(CN2C[C@@]3(C)CN(c4nc(Nc5cnn(C)c5)ncc4Cl)C[C@@]3(C)C2)on1` [Compound 78, 5-chloro-4-((3aR,6aS)-3a,6a-dimethyl-5-((3-methylisoxazol-5-yl)methyl)hexahydropyrrolo[3,4-c]pyrrol-2(1H)-yl)-N-(1-methyl-1H-pyrazol-4-yl)pyrimidin-2-amine], for which the IC50 in experiment [1] (Homo sapiens) came to 2760 nM; in experiment [2], 7.6 nM; in experiment [3], 4.2 nM.

As for `Cc1cnc(Nc2cnn(C)c2)nc1N1C[C@@H]2CN(C(=O)C3CC3)C[C@]2(C)C1` (racemic) [Compound 70, cis-cyclopropyl(3a-methyl-5-(5-methyl-2-((1-methyl-1H-pyrazol-4-yl)amino)pyrimidin-4-yl)hexahydropyrrolo[3,4-c]pyrrol-2(1H)-yl)methanone], the IC50 in experiment [1] (Homo sapiens) came to 1200 nM; in experiment [2], 17 nM; in experiment [3], 5.3 nM.

For the compound `CCNC(=O)c1ccc(Nc2nccc(N3C[C@]4(C)CN(C(=O)C5CC5)C[C@]4(C)C3)n2)cc1` [Compound 3], the IC50 in experiment [2] was 113 nM; in experiment [3] it was 23 nM.
